Laboratory results from article PMC10382584, “Macrocyclization of linear molecules by deep learning to facilitate macrocyclic drug candidates discovery” (Nature Communications, 2023).

What was measured:
Assay in all cases: biochemical
Design in all cases: DiscoveRx KINOMEscan competition binding, percent of DMSO control signal at 100 nM
Settings in all cases: read-out: Fig. 4a / Percent Control / Compound 1; percent of DMSO control, competition binding
LATS2 = LATS2 (Homo sapiens, UniProt Q9NRM7)
TRKA = target: T1, TRKA (Homo sapiens, UniProt P04629)
T1 construct: gene NTRK1

ALK(L1196M) = ALK(L1196M) (Homo sapiens, UniProt Q9UM73, L1196M)
PFTK1 = target: T2, PFTK1 (Homo sapiens, UniProt O94921)
T2 construct: gene CDK14

LRRK2 = LRRK2 (Homo sapiens, UniProt Q5S007)
[1] = target: T3, RPS6KA5(Kin.Dom.1-N-terminal) (Homo sapiens, UniProt O75582)
T3 construct: Kin.Dom.1-N-terminal

FLT3(K663Q) = FLT3(K663Q) (Homo sapiens, UniProt P36888, K663Q)
YANK1 = target: T4, YANK1 (Homo sapiens, UniProt Q8WU08)
T4 construct: gene STK32A

BMPR2 = BMPR2 (Homo sapiens, UniProt Q13873)
MEK5 = target: T5, MEK5 (Homo sapiens, UniProt Q13163)
T5 construct: gene MAP2K5

CDKL1 = CDKL1 (Homo sapiens, UniProt Q00532)
AURKB = AURKB (Homo sapiens, UniProt Q96GD4)
Sequence of AURKB (Q96GD4 whole entry): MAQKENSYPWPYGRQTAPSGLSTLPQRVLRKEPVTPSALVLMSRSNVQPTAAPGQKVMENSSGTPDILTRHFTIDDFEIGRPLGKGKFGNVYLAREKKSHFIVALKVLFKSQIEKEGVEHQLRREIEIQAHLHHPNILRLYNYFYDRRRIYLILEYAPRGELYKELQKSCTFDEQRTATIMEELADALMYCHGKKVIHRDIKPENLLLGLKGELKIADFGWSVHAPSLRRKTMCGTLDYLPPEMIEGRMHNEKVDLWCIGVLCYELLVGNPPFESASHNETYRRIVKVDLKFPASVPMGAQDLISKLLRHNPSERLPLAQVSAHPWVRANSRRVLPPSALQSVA

DCAMKL2 = target: T6, DCAMKL2 (Homo sapiens, UniProt Q8N568)
T6 construct: gene DCLK2
T6 sequence (Q8N568 whole entry): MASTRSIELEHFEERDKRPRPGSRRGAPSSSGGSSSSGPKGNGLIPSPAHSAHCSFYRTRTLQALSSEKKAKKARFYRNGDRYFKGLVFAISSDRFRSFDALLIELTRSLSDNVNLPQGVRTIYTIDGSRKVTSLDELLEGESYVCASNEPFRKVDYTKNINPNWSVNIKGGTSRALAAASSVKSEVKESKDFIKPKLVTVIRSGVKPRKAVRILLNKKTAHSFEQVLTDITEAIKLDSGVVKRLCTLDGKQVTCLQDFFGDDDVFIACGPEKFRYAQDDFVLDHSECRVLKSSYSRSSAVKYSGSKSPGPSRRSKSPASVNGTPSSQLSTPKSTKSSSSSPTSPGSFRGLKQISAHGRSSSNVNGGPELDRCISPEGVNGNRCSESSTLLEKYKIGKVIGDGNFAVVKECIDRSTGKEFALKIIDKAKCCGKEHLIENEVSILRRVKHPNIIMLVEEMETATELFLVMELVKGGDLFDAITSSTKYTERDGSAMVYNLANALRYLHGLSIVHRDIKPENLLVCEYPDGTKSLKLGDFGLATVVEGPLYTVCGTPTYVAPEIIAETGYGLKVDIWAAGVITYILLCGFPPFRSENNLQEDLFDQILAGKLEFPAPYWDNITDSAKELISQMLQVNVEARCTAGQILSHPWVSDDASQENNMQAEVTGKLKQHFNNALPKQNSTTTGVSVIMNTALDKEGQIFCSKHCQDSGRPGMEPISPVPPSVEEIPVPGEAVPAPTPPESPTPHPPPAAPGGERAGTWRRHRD

BUB1 = BUB1 (Homo sapiens, UniProt O43683)
MEK4 = target: T7, MEK4 (Homo sapiens, UniProt P45985)
T7 construct: gene MAP2K4

ULK2 = ULK2 (Homo sapiens, UniProt Q8IYT8)
EGFR(G719S) = EGFR(G719S) (Homo sapiens, UniProt P00533, G719S)
FLT3(D835Y) = FLT3(D835Y) (Homo sapiens, UniProt P36888, D835Y)
CDK4-cyclinD3 = target: T8, CDK4-cyclinD3 (Homo sapiens, UniProt P11802)
T8 construct: cyclinD3
T8 sequence (P11802 whole entry): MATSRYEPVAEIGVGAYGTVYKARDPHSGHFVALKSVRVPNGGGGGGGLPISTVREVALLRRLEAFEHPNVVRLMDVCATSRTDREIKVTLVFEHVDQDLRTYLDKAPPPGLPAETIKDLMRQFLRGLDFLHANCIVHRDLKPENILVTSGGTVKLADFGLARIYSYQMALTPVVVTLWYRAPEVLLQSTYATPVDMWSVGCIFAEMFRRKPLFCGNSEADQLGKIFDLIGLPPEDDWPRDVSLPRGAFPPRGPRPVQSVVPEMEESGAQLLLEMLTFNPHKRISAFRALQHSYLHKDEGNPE
T8 sequence (P30281 whole entry partner): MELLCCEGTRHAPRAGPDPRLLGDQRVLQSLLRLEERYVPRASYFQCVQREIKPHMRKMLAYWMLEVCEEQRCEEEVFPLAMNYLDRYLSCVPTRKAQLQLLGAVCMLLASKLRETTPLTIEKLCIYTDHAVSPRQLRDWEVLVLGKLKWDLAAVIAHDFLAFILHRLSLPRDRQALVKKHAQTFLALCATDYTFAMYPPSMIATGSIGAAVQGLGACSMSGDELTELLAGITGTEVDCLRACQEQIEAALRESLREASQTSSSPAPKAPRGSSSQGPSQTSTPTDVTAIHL

EPHA4 = EPHA4 (Homo sapiens, UniProt P54764)
Sequence of EPHA4 (P54764 whole entry): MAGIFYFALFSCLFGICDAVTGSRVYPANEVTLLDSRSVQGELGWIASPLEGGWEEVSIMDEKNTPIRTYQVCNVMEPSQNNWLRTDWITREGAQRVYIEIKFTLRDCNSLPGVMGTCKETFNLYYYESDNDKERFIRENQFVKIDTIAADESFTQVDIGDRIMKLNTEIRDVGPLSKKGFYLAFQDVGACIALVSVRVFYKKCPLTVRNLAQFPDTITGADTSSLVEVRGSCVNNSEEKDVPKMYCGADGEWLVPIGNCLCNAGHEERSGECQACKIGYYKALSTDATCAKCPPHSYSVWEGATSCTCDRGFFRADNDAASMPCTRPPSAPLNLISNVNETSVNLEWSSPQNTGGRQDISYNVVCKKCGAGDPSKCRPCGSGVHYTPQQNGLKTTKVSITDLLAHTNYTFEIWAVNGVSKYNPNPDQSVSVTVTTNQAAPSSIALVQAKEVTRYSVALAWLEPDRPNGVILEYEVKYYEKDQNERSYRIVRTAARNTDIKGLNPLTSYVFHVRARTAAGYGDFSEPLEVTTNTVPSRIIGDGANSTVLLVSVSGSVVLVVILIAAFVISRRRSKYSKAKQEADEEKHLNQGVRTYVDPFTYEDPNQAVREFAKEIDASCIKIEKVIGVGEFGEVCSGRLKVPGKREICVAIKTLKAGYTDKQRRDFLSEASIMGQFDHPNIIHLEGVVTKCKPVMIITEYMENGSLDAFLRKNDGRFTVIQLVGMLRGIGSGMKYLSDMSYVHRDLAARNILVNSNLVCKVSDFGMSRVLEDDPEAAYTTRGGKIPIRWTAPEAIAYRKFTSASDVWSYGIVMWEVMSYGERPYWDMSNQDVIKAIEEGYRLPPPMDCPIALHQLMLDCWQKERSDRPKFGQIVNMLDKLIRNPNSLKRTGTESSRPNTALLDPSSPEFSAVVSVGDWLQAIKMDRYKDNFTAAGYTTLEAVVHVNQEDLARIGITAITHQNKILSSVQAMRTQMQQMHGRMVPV

DAPK2 = DAPK2 (Homo sapiens, UniProt Q9UIK4)
MST1R = MST1R (Homo sapiens, UniProt Q04912)
Sequence of MST1R (Q04912 whole entry): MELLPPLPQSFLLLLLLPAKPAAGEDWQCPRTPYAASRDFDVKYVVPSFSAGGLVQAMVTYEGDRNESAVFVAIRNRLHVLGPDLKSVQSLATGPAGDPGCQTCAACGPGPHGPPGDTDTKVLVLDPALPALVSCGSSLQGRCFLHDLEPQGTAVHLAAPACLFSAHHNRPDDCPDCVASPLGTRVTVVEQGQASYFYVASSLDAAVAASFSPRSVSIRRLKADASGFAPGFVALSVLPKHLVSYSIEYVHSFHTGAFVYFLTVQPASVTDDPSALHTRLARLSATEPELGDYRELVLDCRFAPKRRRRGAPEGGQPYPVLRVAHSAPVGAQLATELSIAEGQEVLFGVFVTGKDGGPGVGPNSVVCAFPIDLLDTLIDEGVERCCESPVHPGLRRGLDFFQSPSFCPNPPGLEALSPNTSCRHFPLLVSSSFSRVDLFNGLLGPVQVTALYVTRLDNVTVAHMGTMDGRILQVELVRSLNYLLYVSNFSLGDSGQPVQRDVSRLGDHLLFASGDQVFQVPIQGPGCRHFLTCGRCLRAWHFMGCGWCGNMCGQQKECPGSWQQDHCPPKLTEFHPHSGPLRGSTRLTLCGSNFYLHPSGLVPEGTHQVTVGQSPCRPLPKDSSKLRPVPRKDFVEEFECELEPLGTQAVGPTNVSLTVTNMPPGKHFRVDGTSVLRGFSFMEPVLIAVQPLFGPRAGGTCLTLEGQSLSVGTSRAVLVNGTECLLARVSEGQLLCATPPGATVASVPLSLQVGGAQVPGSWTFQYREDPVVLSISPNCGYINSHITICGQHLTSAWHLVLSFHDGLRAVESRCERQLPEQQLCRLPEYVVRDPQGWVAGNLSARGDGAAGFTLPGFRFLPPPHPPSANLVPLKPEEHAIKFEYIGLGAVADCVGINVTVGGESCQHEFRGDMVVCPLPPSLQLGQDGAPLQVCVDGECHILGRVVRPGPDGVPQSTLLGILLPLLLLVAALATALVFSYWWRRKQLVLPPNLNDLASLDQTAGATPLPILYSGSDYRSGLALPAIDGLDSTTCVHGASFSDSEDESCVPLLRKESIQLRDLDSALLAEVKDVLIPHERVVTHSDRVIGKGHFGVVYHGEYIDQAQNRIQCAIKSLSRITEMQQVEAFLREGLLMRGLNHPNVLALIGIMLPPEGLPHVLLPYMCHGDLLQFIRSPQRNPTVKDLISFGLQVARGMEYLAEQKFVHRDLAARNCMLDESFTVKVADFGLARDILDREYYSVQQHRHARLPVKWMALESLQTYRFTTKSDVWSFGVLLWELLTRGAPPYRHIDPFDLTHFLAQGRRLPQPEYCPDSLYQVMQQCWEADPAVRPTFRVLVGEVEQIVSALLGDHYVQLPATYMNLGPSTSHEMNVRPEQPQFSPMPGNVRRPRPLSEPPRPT

STK39 = STK39 (Homo sapiens, UniProt Q9UEW8)
TGFBR1 = TGFBR1 (Homo sapiens, UniProt P36897)
Sequence of TGFBR1 (P36897 whole entry): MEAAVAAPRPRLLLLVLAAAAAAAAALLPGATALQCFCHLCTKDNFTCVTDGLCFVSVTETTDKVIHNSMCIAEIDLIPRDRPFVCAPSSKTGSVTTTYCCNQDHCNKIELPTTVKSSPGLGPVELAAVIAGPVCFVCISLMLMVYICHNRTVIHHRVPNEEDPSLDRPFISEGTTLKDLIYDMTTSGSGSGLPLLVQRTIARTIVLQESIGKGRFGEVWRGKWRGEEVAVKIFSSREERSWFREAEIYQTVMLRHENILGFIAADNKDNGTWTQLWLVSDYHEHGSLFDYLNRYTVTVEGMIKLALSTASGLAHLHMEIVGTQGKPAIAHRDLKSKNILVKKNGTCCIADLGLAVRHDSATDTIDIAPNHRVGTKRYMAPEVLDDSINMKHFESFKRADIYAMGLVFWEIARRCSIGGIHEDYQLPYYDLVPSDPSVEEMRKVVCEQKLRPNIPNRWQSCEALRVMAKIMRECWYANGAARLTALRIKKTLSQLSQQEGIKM

STK16 = STK16 (Homo sapiens, UniProt O75716)
Sequence of STK16 (O75716 whole entry): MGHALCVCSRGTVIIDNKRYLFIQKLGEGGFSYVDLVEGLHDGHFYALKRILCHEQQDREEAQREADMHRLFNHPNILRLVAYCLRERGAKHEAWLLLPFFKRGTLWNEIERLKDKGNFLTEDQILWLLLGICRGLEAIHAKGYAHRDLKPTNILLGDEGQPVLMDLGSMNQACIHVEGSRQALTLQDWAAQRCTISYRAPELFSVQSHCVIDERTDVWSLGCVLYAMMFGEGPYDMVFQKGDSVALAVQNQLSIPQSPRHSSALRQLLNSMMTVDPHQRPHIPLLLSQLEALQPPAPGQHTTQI
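Further: KINOMEscan kinase panel binding assay, signal normalized between DMSO as 100% and a positive control compound as 0%.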

## Cc1cnc2nc1Nc1cccc(c1)COCc1cc(ccc1OCCN1CCCC1)N2 [Compound 1]
LATS2
  remaining binding at 0.1 µM: 100%
TRKA
  remaining binding at 0.1 µM: 26%
ALK(L1196M)
  remaining binding at 0.1 µM: 60%
PFTK1
  remaining binding at 0.1 µM: 84%
LRRK2
  remaining binding at 0.1 µM: 85%
[1]
  remaining binding at 0.1 µM: 83%
FLT3(K663Q)
  remaining binding at 0.1 µM: 36%
YANK1
  remaining binding at 0.1 µM: 73%
BMPR2
  remaining binding at 0.1 µM: 87%
MEK5
  remaining binding at 0.1 µM: 22%
CDKL1
  remaining binding at 0.1 µM: 86%
AURKB
  remaining binding at 0.1 µM: 82%
DCAMKL2
  remaining binding at 0.1 µM: 96%
BUB1
  remaining binding at 0.1 µM: 82%
MEK4
  remaining binding at 0.1 µM: 92%
ULK2
  remaining binding at 0.1 µM: 83%
EGFR(G719S)
  remaining binding at 0.1 µM: 91%
FLT3(D835Y)
  remaining binding at 0.1 µM: 14%
CDK4-cyclinD3
  remaining binding at 0.1 µM: 95%
EPHA4
  remaining binding at 0.1 µM: 100%
DAPK2
  remaining binding at 0.1 µM: 98%
MST1R
  remaining binding at 0.1 µM: 100%
STK39
  remaining binding at 0.1 µM: 62%
TGFBR1
  remaining binding at 0.1 µM: 94%
STK16
  remaining binding at 0.1 µM: 18%
